From PMC5727165, “A switch in nucleotide affinity governs activation of the Src and Tec family kinases” (Scientific Reports, 2017)
Where “and” joins values, the source holds several entries; their conditions need not be identical. Equal entries are not always repeated.

Experiments:
Src^32K = target: T1, Src^32K (Mus musculus, UniProt P05480); experiment: Fluorescence anisotropy binding of Mant-labelled nucleotides
T1 construct: mouse Src^85-535 (Src^32K); GST (cleaved yes); made in house; host or cells: baculovirus-infected Sf9 insect cells, co-expressed with human Csk
Source text: (§1) To characterise the nucleotide binding of Itk and Src, we purified recombinant wild type and mutant constructs of Itk and Src containing their respective SH3, SH2, and kinase domains (from here on referred to as Itk^32K, Src^32K, and Src^32KΔC, Fig. 1a). We confirmed the mass and homogeneity of isolated species by high-resolution anion exchange chromatography, intact mass spectrometry, and Western blotting with phospho-specific antibodies (Supplementary Figs 1–3). We performed fluorescence anisotropy measurements using Mant-labelled nucleotides. […] To avoid autophosphorylation during the course of the titration, we used the non-hydrolysable ATP analogue AMPPNP. […] Src^32K bound ADP approximately 6-fold more tightly than AMPPNP (Supplementary Fig. 4d).
(§2) Human Itk^171–620 (Itk^32K), mouse Src^85-535 (Src^32K), and mouse Src^85-523 (Src^32KΔC) as well as their respective point mutants were expressed as GST fusions in baculovirus-infected Sf9 insect cells. For the generation of Tyr527-phosphorylated Src^85-535, the protein was co-expressed with human Csk using pFastBac Dual (Invitrogen). Proteins were purified by sequential glutathione-sepharose affinity chromatography, TEV cleavage, high-resolution anion exchange, and size exclusion chromatography in a final buffer of 50 mM Tris, pH 7.5, 200 mM NaCl, 1 mM TCEP, 1% (v/v) glycerol.
(§3) The binding constants for ADP and AMPPNP were determined for Src and Itk proteins by fluorescence anisotropy, using 2′/3′-Mant-labelled nucleotides (Jena Bioscience). Increasing concentrations of Itk^32K, Itk^L351A or Src^32K were incubated with 40 μM Mant-nucleotide in 30 mM Tris pH 7.5, 200 mM NaCl, 5 mM MgCl2, and 1 mM TCEP. Measurements were made with a Perkin Elmer LS50B fluorimeter (λex = 355 nm, λem = 447 nm) at 20 °C. For each data point 50–60 measurements, each with an integration time of 1 s, were averaged. For competition nucleotide displacement assays, 40–80 μM of protein was incubated with 40 μM Mant-ADP until equilibrium was established. Unlabelled nucleotide was titrated into the reaction and fluorescence anisotropy monitored. The equilibrium inhibition constant for the unlabelled nucleotide was calculated from the fitted curve.

Itk^32K = target: T2, Itk^32K (Homo sapiens, UniProt Q08881); experiment: as above; conditions: wild type Itk^32K; 40 μM Mant-nucleotide, 20 °C
T2 construct: Human Itk^171–620 (Itk^32K); GST (cleaved yes); made in house; host or cells: baculovirus-infected Sf9 insect cells
T2 sequence (Q08881 171-620): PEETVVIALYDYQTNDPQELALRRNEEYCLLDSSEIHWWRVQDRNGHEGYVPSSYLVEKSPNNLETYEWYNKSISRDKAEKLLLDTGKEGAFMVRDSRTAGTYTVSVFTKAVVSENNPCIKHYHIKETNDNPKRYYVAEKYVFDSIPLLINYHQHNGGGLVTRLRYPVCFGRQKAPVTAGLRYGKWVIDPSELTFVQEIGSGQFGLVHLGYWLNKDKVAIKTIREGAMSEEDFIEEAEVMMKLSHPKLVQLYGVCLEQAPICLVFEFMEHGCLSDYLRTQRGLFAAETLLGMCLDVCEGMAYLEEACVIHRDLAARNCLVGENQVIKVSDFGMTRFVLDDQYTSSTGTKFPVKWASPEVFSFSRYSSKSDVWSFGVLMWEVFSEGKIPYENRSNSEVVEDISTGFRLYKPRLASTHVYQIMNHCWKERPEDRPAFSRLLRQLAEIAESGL
Source text: as §1, §2, §3

Src^32KΔC = target: T3, Src^32KΔC (Mus musculus, UniProt P05480); experiment: Competition nucleotide displacement assay (Mant-ADP, fluorescence anisotropy); assay type: binding
T3 construct: mouse Src^85-523 (Src^32KΔC); GST (cleaved yes); made in house; host or cells: baculovirus-infected Sf9 insect cells
Protocol: Figure 2 Itk adopts a Src-like autoinhibited conformation. (a) Competition nucleotide displacement assay for Src^32KΔC. 40 μM Src^32KΔC was incubated with 40 μM Mant-ADP until equilibrium was established. Unlabelled ADP or AMPPNP was titrated into the reaction and fluorescence anisotropy monitored. […] (b) Small angle X-ray scattering curves for Itk^32K (cyan), Src^32K (magenta), Src^32KΔC (blue), and Src^32K R175L (green). […] (d) Table of physical parameters obtained from the scattering curves for Itk^32K, Src^32K, Src^32KΔC, and Src^32K R175L. (e)Ab initio model of Itk^32K and docking of autoinhibited Src (2SRC.pdb) into the molecular envelope. Two orientations of the envelope are shown for clarity. (f) Ab initio molecular envelope for Src^32KΔC illustrates the fit of the crystal structure of autoinhibited Src. TEXT PRINTED IN THE PICTURE: (a) ADP: Src^32KΔC Ki (mM): 0.03 ± 0.008 | (a) ANP: Src^32KΔC Ki (mM): 0.69 ± 0.140
as §3

T1 sequence (P05480 85-535): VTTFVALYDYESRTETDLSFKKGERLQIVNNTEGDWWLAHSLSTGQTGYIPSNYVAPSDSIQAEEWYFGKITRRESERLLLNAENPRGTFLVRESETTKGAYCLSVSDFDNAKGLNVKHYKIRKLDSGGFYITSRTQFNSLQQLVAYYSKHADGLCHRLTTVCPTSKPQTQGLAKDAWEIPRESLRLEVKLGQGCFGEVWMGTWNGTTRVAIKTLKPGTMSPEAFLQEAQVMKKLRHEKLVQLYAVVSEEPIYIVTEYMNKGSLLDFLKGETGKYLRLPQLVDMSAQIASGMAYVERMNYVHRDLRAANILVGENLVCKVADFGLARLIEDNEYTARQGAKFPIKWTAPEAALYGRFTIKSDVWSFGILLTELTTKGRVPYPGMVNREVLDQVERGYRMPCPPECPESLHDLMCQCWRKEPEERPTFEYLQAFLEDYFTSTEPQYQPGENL
T3 sequence (P05480 85-523, stated change not applied): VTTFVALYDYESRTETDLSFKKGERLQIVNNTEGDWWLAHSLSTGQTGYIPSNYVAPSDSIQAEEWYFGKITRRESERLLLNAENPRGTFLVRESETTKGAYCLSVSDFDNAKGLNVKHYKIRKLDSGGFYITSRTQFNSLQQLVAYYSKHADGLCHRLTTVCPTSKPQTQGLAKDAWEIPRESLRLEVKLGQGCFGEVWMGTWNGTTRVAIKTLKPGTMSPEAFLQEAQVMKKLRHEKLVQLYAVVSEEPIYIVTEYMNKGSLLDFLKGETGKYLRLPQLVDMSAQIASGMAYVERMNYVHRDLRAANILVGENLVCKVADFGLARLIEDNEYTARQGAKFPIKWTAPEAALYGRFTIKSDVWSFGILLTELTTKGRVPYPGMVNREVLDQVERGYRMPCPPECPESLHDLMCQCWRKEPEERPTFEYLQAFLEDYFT

Kd (Src^32K; Mant-labelled nucleotide): 66 µM
fold difference in affinity, ADP tighter than AMPPNP (Src^32K; direct Mant-nucleotide binding): approximately 6 fold
Kd (Itk^32K): 23.7 µM and 24 µM
Ki (Src^32KΔC; 40 μM Src^32KΔC, 40 μM Mant-ADP, read-out: Ki (equilibrium inhibition constant)): 30 ± 8 µM
fold difference in Ki, ADP preferred over AMPPNP (Src^32KΔC; Src^32KΔC, displacement of Mant-ADP): approximately 23 fold
SMILES: Nc1ncnc2c1ncn2[C@@H]1O[C@H](COP(=O)(O)OP(=O)(O)O)[C@@H](O)[C@H]1O [ADP]
